Source: patent US20100248965A1, “HERBICIDAL COMBINATION” (Bayer CropScience AG, priority 2007, published 2010)
Where “and” joins values, the source holds several entries; their conditions need not be identical. Equal entries are not always repeated.

What was measured:
Assay type in all cases: in vivo
[1] = system: Polygonum convolvulus; assay: Post-emergence action against weeds (greenhouse, visual scoring): Polygonum convolvulus; settings: scored 11 days after application
Experimental: (§1) Seeds or rhizome pieces of monocotyledonous and dicotyledonous weeds were placed in sandy loam soil in plastic pots, covered with soil and cultivated in a greenhouse under good growth conditions. Three weeks after sowing, the test plants were treated at the 2- to 4-leaf stage. The compounds according to the invention, formulated as wettable powders or as emulsion concentrates, were sprayed onto the green parts of the plants in various dosages at a water application rate of 100 to 800 l/ha (converted).
(§2) Scoring was carried out 11 days after the application of the sprays. In the case of the combination with B7-16 (table 1-15), the weed was Polygonum spp. and scoring was carried out 20 days after application.
(§3) The control of the weed was scored according to the scheme below.

[2] = system: Veronica persica; assay: Post-emergence action against weeds (greenhouse, visual scoring): Veronica persica; settings: scored 10 days after application
Experimental: as §1, with “(converted). After the test plants had been left to stand in the greenhouse for 10 to 28 days under optimum growth conditions, the effect of the preparations was scored visually in comparison to untreated controls.” for “(converted).”
In an exemplary manner, tables 2-1 to 2-4 below show the improved control of the weed Veronica persica by application of the herbicide combinations according to the invention using the combination of the compound A-2 (sodium salt of 2-iodo-N-[(4-methoxy-6-methyl-1,3,5-triazin-2-yl)carbamoyl]benzenesulfonamide) and selected herbicides from group B, i.e. the herbicides amidosulfuron (=B7-1), ethoxysulfuron (=B7-9), flucarbazone-sodium (B8-1), and sulfosulfuran (B7-28), as an example.
Scoring was carried out 10 days after the application of the sprays according to the scheme below: […]

[3] = system: Polygonum spp.; assay: Post-emergence action against weeds (greenhouse, visual scoring): Polygonum spp.; settings: scored 20 days after application
Experimental: as §1, §2, §3

[4] = 2.5 g of ai/ha, 0%=no control, 100%=complete control

Molecule: CCOC(=O)Nc1cccc(OC(=O)Nc2ccccc2)c1 [Compound B5-5, desmedipham]
- Polygonum convolvulus Control in % ([1]; 50 g of ai/ha): 28%

Molecule: COc1cc(OC)nc(NC(=O)NS(=O)(=O)N(C)S(C)(=O)=O)n1 [Compound B7-1, amidosulfuron]
- Veronica persica Control in % ([2]; 5 g of ai/ha): 0%

Molecule: CCOc1ccccc1OS(=O)(=O)NC(=O)Nc1nc(OC)cc(OC)n1 [Compound B7-9, ethoxysulfuron]
- Veronica persica Control in % ([2]; 5 g of ai/ha): 8%

Molecule: COc1cc(OC)nc(NC(=O)NS(=O)(=O)c2cc(NC=O)ccc2C(=O)N(C)C)n1 [Compound B7-13, foramsulfuron]
- Polygonum convolvulus Control in % ([1]; 10 g of ai/ha): 15%

Molecule: COC(=O)c1ccc(I)cc1S(=O)(=O)[N-]C(=O)Nc1nc(C)nc(OC)n1.[Na+] [Compound B7-16, iodosulfuron-methyl-sodium]
- Polygonum spp. Control in % ([3]; 2 g of ai/ha): 73%

Molecule: COC(=O)c1ccc(CNS(C)(=O)=O)cc1S(=O)(=O)NC(=O)Nc1nc(OC)cc(OC)n1 [Compound B7-17, mesosulfuron-methyl]
- Polygonum convolvulus Control in % ([1]; 5 g of ai/ha): 20%

Molecule: COC(=O)c1ccccc1S(=O)(=O)NC(=O)Nc1nc(C)nc(OC)n1 [Compound B7-18, metsulfuron-methyl]
- Polygonum convolvulus Control in % [1, 4]: 70%

Molecule: CCS(=O)(=O)c1nc2ccccn2c1S(=O)(=O)NC(=O)Nc1nc(OC)cc(OC)n1 [Compound B7-28, sulfosulfuron]
- Veronica persica Control in % ([2]; 7.5 g of ai/ha): 30%
- Polygonum convolvulus Control in % ([1]; 7.5 g of ai/ha): 78%

Molecule: COC(=O)c1sccc1S(=O)(=O)NC(=O)Nc1nc(C)nc(OC)n1 [Compound B7-29, thifensulfuron-methyl]
- Polygonum convolvulus Control in % ([1]; 7.5 g of ai/ha): 87%

Molecule: COC(=O)c1ccccc1S(=O)(=O)NC(=O)N(C)c1nc(C)nc(OC)n1 [Compound B7-31, tribenuron-methyl]
- Polygonum convolvulus Control in % ([1]; 10 g of ai/ha): 80%

Molecule: COc1nc(NC(=O)NS(=O)(=O)c2ccccc2C(F)(F)F)nc(C(F)(F)F)n1 [Compound B7-34, tritosulfuron]
- Polygonum convolvulus Control in % ([1]; 10 g of ai/ha): 58%

Molecule: CCCc1ccc2nc(Cl)c(S(=O)(=O)NC(=O)Nc3nc(OC)cc(OC)n3)n2n1 [Compound B7-38]
- Polygonum convolvulus Control in % ([1]; 30 g of ai/ha): 0%

Molecule: COc1nn(C(=O)[N-]S(=O)(=O)c2ccccc2OC(F)(F)F)c(=O)n1C.[Na+] [Compound B8-1, flucarbazone-sodium]
- Veronica persica Control in % ([2]; 10 g of ai/ha): 15%
- Polygonum convolvulus Control in % ([1]; 10 g of ai/ha): 55%

Molecule: CCCOc1nn(C(=O)[N-]S(=O)(=O)c2ccccc2C(=O)OC)c(=O)n1C.[Na+] [Compound B8-2, propoxycarbazone-sodium]
- Polygonum convolvulus Control in % ([1]; 10 g of ai/ha): 38%

Molecule: COC(=O)c1csc(C)c1S(=O)(=O)NC(=O)n1nc(OC)n(C)c1=O [Compound B8-3, thiencarbazone-methyl]
- Polygonum convolvulus Control in % ([1]; 1 g of ai/ha): 50%

Molecule: COc1ncc(F)c2nc(S(=O)(=O)Nc3c(F)cccc3F)nn12 [Compound B9-3, florasulam]
- Polygonum convolvulus Control in % [1, 4]: 73%

Molecule: COc1cc(OC)n2nc(NS(=O)(=O)c3c(C(F)(F)F)ccnc3OC)nc2n1 [Compound B9-7, pyroxsulam]
- Polygonum convolvulus Control in % [1, 4]: 75%

Molecule: sodium salt of 2-iodo-N-[(4-methoxy-6-methyl-1,3,5-triazin-2-yl)carbamoyl]benzenesulfonamide [Compound A-2]
- Polygonum spp. Control in % ([3]; 2.5 g of ai/ha): 0%
- Veronica persica Control in % ([2]; 2.5 g of ai/ha, 0%=No control, 100%=Complete control): 10% and 0%
- Polygonum convolvulus Control in % [1, 4]: 10% and 0%
